From patent publication US10195190B2, “Local delivery forms of acriflavine for treating tumors” (The Johns Hopkins University, priority 2015, dated 2019)

How the values were obtained:
9 L gliosarcoma = assay: Survival of F344 rats intracranially implanted with 9 L gliosarcoma; format: in vivo, rat; details: for median survival: systemic treatment (ACF 5 mg/kg/daily from Day 0 or Day 5; oral temozolomide 50 mg/kg/day Days 5-9)
[1] = tested on: glioma cell lines (9 L gliosarcoma, F98 glioma, U87, GB1A); assay: Acriflavine cytotoxicity in vitro, CCK-8 assay, all glioma cell lines tested; format: cell-based, rodent and human; details: 24 h
Procedure: (§1) The cytotoxicity of ACF was analyzed in rodent 9 L gliosarcoma (obtained from the Brain Tumor Research Center, University of California at San Francisco) and F98 glioma (a gift from R. Barth, Ohio State University) cell lines as well as in commercial and primary human glioblastoma cell lines, U87 (ATCC) and GB1A, respectively. The cells were plated in 96-well plates at a density of 4×10^3 cells/well, cultured for 24 h and treated with ACF (concentration range of 0.2 μM-25 μM). After co-incubation with ACF in medium for 24 h, cell growth was assessed using a CCK-8 assay (Dojindo, Kumamoto, Japan) according to manufacturers' protocol. Data are shown as mean+/−SEM and the inhibitory concentration 50% (IC50)+95% confidence interval and R^2 are reported.
(§2) The following concentrations of acriflavine: 0.0249 μM, 0.1245 μM, 0.249 μM, 2.5 μM, 25 μM, 50 μM, 500 μM, and 1000 μM were tested. CCK-8 assay was added to the wells, and the optical density was read at 450 nm by a microplate reader.

[2] = tested on: 9 L rat gliosarcoma cells; assay: Acriflavine cytotoxicity in vitro, CCK-8 assay, 9 L cells; format: cell-based; details: 9 L rat glioma cells, 24 h co-incubation, read-out: IC50 concentration, cell viability
Procedure: as §1, §2

Row | Molecule | median survival (9 L gliosarcoma) | survival benefit compared to the control (9 L gliosarcoma; systemic ACF started on Day 0 or Day 5) | inhibition of proliferation [1] | IC50 [2]
1 | Cn1nnc2c(C(N)=O)ncn2c1=O [temozolomide, Temozolomide] | 28 days |  |  | 
2 | 3,6-diamino-10-methylacridinium chloride mixed with 3,6-acridinediamine [ACF] | 14 days | no benefit in survival | inhibited proliferation in all glioma cell lines tested in a dose-dependent manner | 1070 nM
